Laboratory results: patent publication US20230295212A1 (ROME Therapeutics, Inc., priority 2022, published 2023)
Structures can show the parent of a compound that is named as a salt.

Assays:
[1] = target: T1, HERV-K reverse transcriptase (Homo sapiens, UniProt V9H0F6); assay: Homogeneous time-resolved fluorescence (HTRF) HERV-K RT assay; assay type: biochemical; conditions: triphosphate analogs, HERV-K enzyme 16 ng/well, 25° C. 30 minutes
T1 construct: fused on or other part: C-terminal 8xHis tag
Protocol: Exemplary triphosphate analogs were tested for ability to inhibit HERV-K reverse transcriptase using a homogeneous time-resolved fluorescence (HTRF) assay. Assay procedures and results are described below.
The HERV-K reverse transcriptase homogeneous time-resolved fluorescence (HTRF) assay was performed in a 384-well format with HERV-K reverse transcriptase (2-596)-8His protein. Baculoviruses were created using Bac-to-Bac technology (Invitrogen). pFastflac donor plasmids containing HERV-K reverse transcriptase sequence (NCBI GenBank number AAC63291.1, J. Virology (1999) Vol. 73, No. 3, pp. 2365-2375) were transformed into DH10 Bac cells following the manufacturer's instructions. Recombinant bacmids were then isolated clonally and transfected into SF9 cells with lipofectin. HERV-K reverse transcriptase was expressed in the SF9 insect cells and then purified using immobilized metal affinity chromatography (IMAC) followed by size-exclusion chromatography (SEC).
Test compound was serially diluted in DMSO and further diluted in the assay buffer (50 mM Tris-HCl, 50 mM KCl, 10 mM MgCl2, 10 mM DTT, pH 8.1) to achieve a final DMSO concentration of 1%. The serially diluted compound was mixed with 16 ng/well of HERV-K enzyme, 5 nM of pre-annealed template/biotin-primer pair (synthesized at Geneway Biotechnology), 10 nM of Fluorescein-12-dCTP fluorescent probe (PerkinElmer), and 1 mM dGTP, dATP, and DTTP (ThermoFisher). The template/biotin-primer sequences were:
After incubating at 25° C. for 30 minutes, the detection reagent 20 mM EDTA with streptavidin-terbium cryptate (Cisbio Bioassay) in the PPI buffer (Cisbio Bioassay) was added, and the mixture was incubated at 25° C. for 60 minutes. At the end of the incubation, fluorescence was read at ex/em=337/485 nm and ex/em=337/520 nm on an Envision 2104 plate reader (PerkinElmer). The fluorescence ratio at 520/485 nm was used for the calculation. […] IC50 values were calculated by fitting the compound dose inhibition curve with a 4-parameter non-linear regression equation.

human DNA polymerase γ = target: T2, human DNA polymerase γ (Homo sapiens, UniProt P54098); assay: Homogeneous time-resolved fluorescence human DNA polymerase γ assay; assay type: biochemical; conditions: triphosphates, room temperature 30 minutes
T2 construct: purchased Gentaur
T2 sequence (P54098 1-1239): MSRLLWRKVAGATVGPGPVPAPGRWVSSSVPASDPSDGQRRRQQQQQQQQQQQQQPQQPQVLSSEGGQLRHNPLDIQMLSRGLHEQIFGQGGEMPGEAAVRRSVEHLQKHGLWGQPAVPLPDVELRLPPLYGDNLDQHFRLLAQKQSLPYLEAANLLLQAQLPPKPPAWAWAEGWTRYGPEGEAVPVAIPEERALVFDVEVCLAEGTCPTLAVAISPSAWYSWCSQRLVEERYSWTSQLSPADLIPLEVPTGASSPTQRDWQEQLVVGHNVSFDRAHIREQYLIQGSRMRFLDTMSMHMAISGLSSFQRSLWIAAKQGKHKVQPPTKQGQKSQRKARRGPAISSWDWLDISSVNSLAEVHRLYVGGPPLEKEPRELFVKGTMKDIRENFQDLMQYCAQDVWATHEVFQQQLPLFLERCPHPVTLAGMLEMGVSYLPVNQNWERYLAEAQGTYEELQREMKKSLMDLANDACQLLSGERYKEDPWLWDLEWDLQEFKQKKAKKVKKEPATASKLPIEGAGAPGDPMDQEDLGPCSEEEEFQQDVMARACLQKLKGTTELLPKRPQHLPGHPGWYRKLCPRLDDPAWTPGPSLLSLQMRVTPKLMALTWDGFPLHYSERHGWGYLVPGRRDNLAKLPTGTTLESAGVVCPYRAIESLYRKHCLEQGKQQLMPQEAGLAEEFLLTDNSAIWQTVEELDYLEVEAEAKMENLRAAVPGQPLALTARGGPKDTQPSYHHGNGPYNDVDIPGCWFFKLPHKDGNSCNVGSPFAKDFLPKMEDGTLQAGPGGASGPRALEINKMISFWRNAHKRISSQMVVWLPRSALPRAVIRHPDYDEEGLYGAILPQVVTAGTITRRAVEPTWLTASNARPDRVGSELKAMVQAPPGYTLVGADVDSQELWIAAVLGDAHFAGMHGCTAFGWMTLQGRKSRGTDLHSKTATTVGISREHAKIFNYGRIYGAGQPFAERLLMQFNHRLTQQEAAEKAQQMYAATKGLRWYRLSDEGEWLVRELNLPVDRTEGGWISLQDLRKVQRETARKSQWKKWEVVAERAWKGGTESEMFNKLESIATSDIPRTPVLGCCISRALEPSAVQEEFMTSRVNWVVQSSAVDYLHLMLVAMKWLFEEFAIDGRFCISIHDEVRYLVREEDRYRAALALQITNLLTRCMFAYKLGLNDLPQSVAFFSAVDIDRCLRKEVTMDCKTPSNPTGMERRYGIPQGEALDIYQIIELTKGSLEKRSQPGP
Protocol: Exemplary compounds were tested for ability to inhibit human DNA polymerase γ using a homogeneous time-resolved fluorescence (HTRF) assay. Off-target inhibition of DNA polymerase γ by NRTIs can result in undesired mitochondrial toxicity. Assay procedures and results are described below.
The human DNA polymerase γ homogeneous time-resolved fluorescence (HTRF) assay was performed with recombinant human DNA polymerase γ protein (Gentaur) in a 384-well format. Test compound was serially diluted in water and further diluted in the assay buffer (28 mM Tris-HCl, 14 mM NaCl, 0.56 mM MgCl2, 0.011% Triton X-100, 0.11 mg/ml BSA, 1.1 mM DTT, pH 8.1). The serially diluted compound was mixed with polymerase γ, 10 nM of pre-annealed template/biotin-primer pair (synthesized at Geneway Biotechnology), 100 nM of Fluorescein-12-dCTP fluorescent probe (PerkinElmer), and 10 μM dGTP/dATP/dTTP (ThermoFisher Scientific) in the assay buffer. The template/biotin-primer sequences were as follows:
After incubating at room temperature for 30 minutes, the detection reagent (5 mM EDTA with streptavidin-terbium cryptate, Cisbio Bioassay) in the PPI buffer (Cisbio Bioassay) was added, and the mixture was incubated at room temperature for 60 minutes. At the end of the incubation, fluorescence was read at ex/em=337/485 nm and ex/em=337/520 nm on an Envision 2104 plate reader (PerkinElmer). The fluorescence ratio at 520/485 nm was used for the calculation. […] The IC50 was calculated by fitting the compound dose inhibition curve with a 4-parameter non-linear regression equation.

T1 sequence (V9H0F6 entry or part of it): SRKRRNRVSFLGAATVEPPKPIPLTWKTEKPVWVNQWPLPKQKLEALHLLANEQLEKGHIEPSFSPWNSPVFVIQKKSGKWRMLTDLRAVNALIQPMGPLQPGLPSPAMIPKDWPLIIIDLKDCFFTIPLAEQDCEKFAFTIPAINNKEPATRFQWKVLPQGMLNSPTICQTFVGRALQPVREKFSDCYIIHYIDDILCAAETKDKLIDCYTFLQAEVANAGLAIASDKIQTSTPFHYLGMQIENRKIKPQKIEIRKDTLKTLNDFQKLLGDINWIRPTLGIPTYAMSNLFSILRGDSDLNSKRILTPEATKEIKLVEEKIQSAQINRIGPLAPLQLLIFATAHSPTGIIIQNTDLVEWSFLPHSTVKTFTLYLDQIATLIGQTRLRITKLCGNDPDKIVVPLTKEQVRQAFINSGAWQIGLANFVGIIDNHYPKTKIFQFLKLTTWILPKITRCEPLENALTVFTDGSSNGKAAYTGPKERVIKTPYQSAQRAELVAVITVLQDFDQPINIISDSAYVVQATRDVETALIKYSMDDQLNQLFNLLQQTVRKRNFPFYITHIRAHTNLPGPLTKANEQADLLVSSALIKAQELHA

SMILES: CC[C@]1(COP(=O)(O)OP(=O)(O)OP(=O)(O)O)O[C@@H](n2ccc(N)nc2=O)C[C@@H]1O [44-TP]
- IC50 [1]: > 10 µM
- IC50 (human DNA polymerase γ): > 300 µM

SMILES: Nc1ccn([C@H]2C[C@H](O)[C@@](CCl)(COP(=O)(O)OP(=O)(O)OP(=O)(O)O)O2)c(=O)n1 [Compound 2-TP]
- IC50 [1]: 17 µM
- IC50 (human DNA polymerase γ): ≤ 50 µM

SMILES: Nc1nc(=O)n([C@H]2C[C@H](O)[C@@](CCl)(COP(=O)(O)OP(=O)(O)OP(=O)(O)O)O2)cc1F [Compound 14-TP, ((2R,3S,5R)-5-(4-amino-5-fluoro-2-oxopyrimidin-1(2H)-yl)-2-(chloromethyl)-3-hydroxytetrahydrofuran-2-yl)methyl tetrahydrogen triphosphate TEA Salt]
- IC50 [1]: > 10 µM
- IC50 (human DNA polymerase γ): 50 to 100 µM

SMILES: C#C[C@]1(COP(=O)(O)OP(=O)(O)OP(=O)(O)O)O[C@@H](n2ccc(N)nc2=O)[C@@H](F)[C@@H]1O [Compound 35-TP]
- IC50 [1]: 0.013 µM
- IC50 (human DNA polymerase γ): 200 to 300 µM

SMILES: Nc1ccn([C@@H]2O[C@](CCl)(COP(=O)(O)OP(=O)(O)OP(=O)(O)O)[C@@H](O)[C@@H]2F)c(=O)n1 [Compound 40-TP]
- IC50 [1]: > 10 µM
- IC50 (human DNA polymerase γ): 200 to 300 µM

SMILES: C=C[C@]1(COP(=O)(O)OP(=O)(O)OP(=O)(O)O)O[C@@H](n2ccc(N)nc2=O)C[C@@H]1O [Compound 43-TP]
- IC50 [1]: 4.01 µM
- IC50 (human DNA polymerase γ): 200 to 300 µM

SMILES: Nc1nc(=O)n([C@@H]2O[C@](CCl)(COP(=O)(O)OP(=O)(O)OP(=O)(O)O)[C@@H](O)[C@@H]2F)cc1F [Compound 67-TP]
- IC50 [1]: > 10 µM
- IC50 (human DNA polymerase γ): 200 to 300 µM
